Common to all, as to format: in vivo
The test system of assay [1] is Chenopodium album. Briefly: Test Example 13: herbicidal effect test by soil treatment in upland field. Particulars: 120 g/10a, 14 days after treatment. The procedure, abridged: (§1)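 Suppression rate (%) is calculated from mean plant dry weight in treated versus untreated plots, 14 days after treatment, with duplicate plots per concentration. Seeds (20 per species) are mixed into the surface centimetre of alluvial soil, and the diluted emulsifiable concentrate is sprayed onto the soil the following day at 120 g a.i. per 10 are.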

The subject of assay [2] is Amaranthus viridis. Described as above. Conditions: 120 g/10a, 14 days after treatment. The procedure, abridged: as §1
Assay [3] has as its system Echinochloa crus-galli. The assay is described as above. Conditions: 120 g/10a, 14 days after treatment. The procedure, abridged: as §1
The subject of assay [4] is crabgrass. Described as above. Conditions: 120 g/10a, 14 days after treatment. The procedure, abridged: as §1
Assay [5] concerns Chenopodium album. Briefly: Test Example 14: herbicidal effect test by foliage treatment in upland field. Conditions: 7 days after sowing, 120 g/10a, 14 days after treatment. The procedure, abridged:
(§2)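 Post-sowing spray at day 7, 120 g a.i./10 are in 100 L water/10 are; alluvial soil pots, duplicate plots; endpoint day 14, % suppression from dry weight relative to untreated.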

For assay [6], the system named is crabgrass. The assay is described as above. Particulars: 7 days after sowing, 120 g/10a, 14 days after treatment. The procedure, abridged: as §2
Assay [7] relates to Monochoria vaginalis. The assay can be described thus: Test Example 11: herbicidal effect test by soil treatment in paddy field. Particulars: 120 g/10a active ingredient, 14 days after treatment. The procedure, abridged: (§3)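 Weed suppression rate (%) was calculated as (1 − mean treated dry weight / mean untreated dry weight) × 100 at 14 days after treatment, two replicates per plot. Seeds were sown at 0–1 cm in flooded (about 3 cm) puddled paddy soil and treated immediately at 120 g active ingredient per 10 are.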

The subject of assay [8] is Scirpus juncoides. Described as above. Particulars: 120 g/10a active ingredient, 14 days after treatment. The procedure, abridged: as §3
The subject of assay [9] is Lindernia pyxidaria. The description is as above. Particulars: 120 g/10a active ingredient, 14 days after treatment. The procedure, abridged:
as §3

Assay [10] deals with Echinochloa crus-galli. The assay is described as above. Particulars: 120 g/10a active ingredient, 14 days after treatment. The procedure, abridged: as §3
Assay [11] deals with Amaranthus viridis. The assay can be described thus: Test Example 14: herbicidal effect test by foliage treatment in upland field. Conditions: 7 days after sowing, 120 g/10a, 14 days after treatment. The procedure, abridged:
as §2

The subject of assay [12] is Echinochloa crus-galli. The assay is described as above. Particulars: 7 days after sowing, 120 g/10a, 14 days after treatment. The procedure, abridged:
as §2

In assay [13] the test system is Monochoria vaginalis. The assay can be described thus: Test Example 12: herbicidal effect test by treatment during growing period in paddy field. Conditions: 120 g/10a; treatment seven days after sowing in flooded paddy pot; assessed 14 days after treatment. The procedure, abridged:
(§4)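 Growing-period treatment in flooded paddy pots: the diluted emulsifiable concentrate was dripped in at 120 g a.i. per 10 are seven days after seeding. Inhibition is expressed as percent reduction in dry weight versus untreated pots, measured 14 days later in duplicate.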

Assay [14] concerns Scirpus juncoides. The description is as above. Particulars: 120 g/10a; treatment seven days after sowing in flooded paddy pot; assessed 14 days after treatment. The procedure, abridged:
as §4

Assay [15] has as its system Lindernia pyxidaria. Described as above. Conditions: 120 g/10a; treatment seven days after sowing in flooded paddy pot; assessed 14 days after treatment. The procedure, abridged:
as §4

The test system of assay [16] is Echinochloa crus-galli. Described as above. Particulars: 120 g/10a; treatment seven days after sowing in flooded paddy pot; assessed 14 days after treatment. The procedure, abridged:
as §4

SMILES strings stand for the structures.

As to `CC(C)N(C(=O)n1cnn(S(=O)(=O)C2CC2)c1=O)c1ccccc1` [Compound 11-159], the “herbicidal effect, Chenopodium album” value in the assay on Chenopodium album [1] and in the assay with Chenopodium album [5] was 80% in each case. The “herbicidal effect, Amaranthus viridis” value in the assay with Amaranthus viridis [2] and in the assay on Amaranthus viridis [11] was 90% in each case. Also, the “herbicidal effect, Echinochloa crus-galli” value with Echinochloa crus-galli [3] and in the assay on Echinochloa crus-galli [12] was 80% each time. Further, the “herbicidal effect, Crabgrass” value in the assay on crabgrass [4] and in the assay on crabgrass [6] was 90% throughout. Moreover, the “Weed suppression rate (%) Monochoria vaginalis” value in the assay on Monochoria vaginalis [7] is reported as 80%; in the assay with Monochoria vaginalis [13], 90%. For the same compound, the “Weed suppression rate (%) Scirpus juncoides” value came to 90% with Scirpus juncoides [8] and 80% with Scirpus juncoides [14]. The results for the “Weed suppression rate (%) Lindemia pyxidaria” value in the assay with Lindernia pyxidaria [9] and with Lindernia pyxidaria [15] were 80% and 70%, respectively. Moreover, the “Weed suppression rate (%) Echinochloa crus-galli” value in the assay on Echinochloa crus-galli [10] and in the assay on Echinochloa crus-galli [16] was 90% in each case.
`Cc1cc(C)c(S(=O)(=O)n2ncn(C(=O)N(c3ccc(F)cc3Cl)C(C)C)c2=O)c(C)c1` [Compound 11-870]: the “herbicidal effect, Chenopodium album” value in the assay on Chenopodium album [1] and with Chenopodium album [5] was 80% throughout. The “herbicidal effect, Amaranthus viridis” value in the assay with Amaranthus viridis [2] and with Amaranthus viridis [11] was 90% throughout. Further, the “herbicidal effect, Echinochloa crus-galli” value with Echinochloa crus-galli [3] and with Echinochloa crus-galli [12] was 80% throughout. The “herbicidal effect, Crabgrass” value with crabgrass [4] and in the assay on crabgrass [6] was 90% in each case. Moreover, the “Weed suppression rate (%) Monochoria vaginalis” value in the assay with Monochoria vaginalis [7] and in the assay on Monochoria vaginalis [13] was 80% in each case. Moreover, the “Weed suppression rate (%) Scirpus juncoides” value in the assay with Scirpus juncoides [8] and in the assay on Scirpus juncoides [14] was 90% throughout. For the same compound, the “Weed suppression rate (%) Lindemia pyxidaria” value in the assay on Lindernia pyxidaria [9] and with Lindernia pyxidaria [15] was 80% throughout. For the same compound, the “Weed suppression rate (%) Echinochloa crus-galli” value in the assay on Echinochloa crus-galli [10] and with Echinochloa crus-galli [16] was 90% in each case.
On to `CC(C)N(C(=O)n1cnn(S(=O)(=O)C(C)C)c1=O)c1ccc(F)cc1F` [Compound 11-59], for which the “herbicidal effect, Chenopodium album” value in the assay on Chenopodium album [1] was 100%; with Chenopodium album [5], 80%. For the same compound, the “herbicidal effect, Amaranthus viridis” value in the assay on Amaranthus viridis [2] and in the assay on Amaranthus viridis [11] was 90% in each case. Moreover, the “herbicidal effect, Echinochloa crus-galli” value is on record as 100% in the assay with Echinochloa crus-galli [3] and 80% with Echinochloa crus-galli [12]. Moreover, the “herbicidal effect, Crabgrass” value is given as 100% in the assay with crabgrass [4] and 90% in the assay with crabgrass [6]. For the same compound, the “Weed suppression rate (%) Monochoria vaginalis” value in the assay on Monochoria vaginalis [7] and with Monochoria vaginalis [13] was 100% in each case. The “Weed suppression rate (%) Scirpus juncoides” value in the assay on Scirpus juncoides [8] was 100%; in the assay with Scirpus juncoides [14], 90%. For the same compound, the “Weed suppression rate (%) Lindemia pyxidaria” value with Lindernia pyxidaria [9] came out at 100%; with Lindernia pyxidaria [15] it was 80%. In addition, the “Weed suppression rate (%) Echinochloa crus-galli” value in the assay with Echinochloa crus-galli [10] and in the assay with Echinochloa crus-galli [16] was 100% in each case.
For the compound `Cc1ccc(S(=O)(=O)n2ncn(C(=O)N(c3ccc(F)cc3F)C(C)C)c2=O)cc1` [Compound 11-637], the “herbicidal effect, Chenopodium album” value with Chenopodium album [1] turned out to be 40%; in the assay on Chenopodium album [5] it was 0%. In addition, the “herbicidal effect, Amaranthus viridis” value with Amaranthus viridis [2] was 40%; in the assay with Amaranthus viridis [11], 0%. For the same compound, the “herbicidal effect, Echinochloa crus-galli” value in the assay with Echinochloa crus-galli [3] came out at 100%; with Echinochloa crus-galli [12], 80%. Also, the “herbicidal effect, Crabgrass” value with crabgrass [4] was found to be 90%; in the assay with crabgrass [6], 80%. The “Weed suppression rate (%) Monochoria vaginalis” value stood at 100% with Monochoria vaginalis [7] and 90% with Monochoria vaginalis [13]. The “Weed suppression rate (%) Scirpus juncoides” value in the assay on Scirpus juncoides [8] and in the assay on Scirpus juncoides [14] was 90% each time. Besides, the “Weed suppression rate (%) Lindemia pyxidaria” value in the assay on Lindernia pyxidaria [9] is reported as 100%; with Lindernia pyxidaria [15], 90%. In addition, the “Weed suppression rate (%) Echinochloa crus-galli” value in the assay on Echinochloa crus-galli [10] and in the assay with Echinochloa crus-galli [16] was 100% in each case.
With `CC(C)N(C(=O)n1cnn(S(C)(=O)=O)c1=O)c1c(F)cc(F)cc1F` [Compound 11-16], the “herbicidal effect, Chenopodium album” value with Chenopodium album [1] and in the assay with Chenopodium album [5] was 70% each time. Also, the “herbicidal effect, Amaranthus viridis” value in the assay on Amaranthus viridis [2] came to 100%; in the assay with Amaranthus viridis [11], 30%. Also, the “herbicidal effect, Echinochloa crus-galli” value with Echinochloa crus-galli [3] and in the assay on Echinochloa crus-galli [12] was 100% each time. Besides, the “herbicidal effect, Crabgrass” value with crabgrass [4] and with crabgrass [6] was 100% each time. In addition, the “Weed suppression rate (%) Monochoria vaginalis” value with Monochoria vaginalis [7] amounted to 90%; in the assay on Monochoria vaginalis [13] it was 100%. The “Weed suppression rate (%) Scirpus juncoides” value in the assay with Scirpus juncoides [8] came to 90%; with Scirpus juncoides [14], 100%. Besides, the “Weed suppression rate (%) Lindemia pyxidaria” value in the assay with Lindernia pyxidaria [9] turned out to be 100%; in the assay with Lindernia pyxidaria [15], 90%. Also, the “Weed suppression rate (%) Echinochloa crus-galli” value with Echinochloa crus-galli [10] and in the assay on Echinochloa crus-galli [16] was 100% in each case.
`CC(C)N(C(=O)n1cnn(S(=O)(=O)c2cccs2)c1=O)c1ccc(F)cc1Cl` [Compound 11-1029]: the “herbicidal effect, Chenopodium album” value in the assay with Chenopodium album [1] and with Chenopodium album [5] was 80% each time. The “herbicidal effect, Amaranthus viridis” value in the assay with Amaranthus viridis [2] and with Amaranthus viridis [11] was 90% each time. The “herbicidal effect, Echinochloa crus-galli” value in the assay with Echinochloa crus-galli [3] and in the assay with Echinochloa crus-galli [12] was 80% in each case. The “herbicidal effect, Crabgrass” value in the assay on crabgrass [4] and with crabgrass [6] was 90% throughout. Further, the “Weed suppression rate (%) Monochoria vaginalis” value in the assay with Monochoria vaginalis [7] and in the assay with Monochoria vaginalis [13] was 80% in each case. Moreover, the “Weed suppression rate (%) Scirpus juncoides” value in the assay with Scirpus juncoides [8] and in the assay on Scirpus juncoides [14] was 90% each time. Also, the “Weed suppression rate (%) Lindemia pyxidaria” value with Lindernia pyxidaria [9] and in the assay with Lindernia pyxidaria [15] was 80% each time. Also, the “Weed suppression rate (%) Echinochloa crus-galli” value in the assay with Echinochloa crus-galli [10] and with Echinochloa crus-galli [16] was 90% in each case.
Turning to `CCC(C)S(=O)(=O)n1ncn(C(=O)N(c2ccc(F)cc2F)C(C)C)c1=O` (centres unmarked) [Compound 11-93], the “herbicidal effect, Chenopodium album” value in the assay with Chenopodium album [1] and in the assay on Chenopodium album [5] was 80% each time. Besides, the “herbicidal effect, Amaranthus viridis” value in the assay on Amaranthus viridis [2] and with Amaranthus viridis [11] was 90% in each case. For the same compound, the “herbicidal effect, Echinochloa crus-galli” value in the assay with Echinochloa crus-galli [3] and in the assay on Echinochloa crus-galli [12] was 80% each time. The “herbicidal effect, Crabgrass” value with crabgrass [4] and in the assay with crabgrass [6] was 90% throughout. Also, the “Weed suppression rate (%) Monochoria vaginalis” value in the assay on Monochoria vaginalis [7] and in the assay on Monochoria vaginalis [13] was 90% each time. Moreover, the “Weed suppression rate (%) Scirpus juncoides” value with Scirpus juncoides [8] and in the assay with Scirpus juncoides [14] was 90% in each case. In addition, the results for the “Weed suppression rate (%) Lindemia pyxidaria” value in the assay with Lindernia pyxidaria [9] and in the assay with Lindernia pyxidaria [15] were 90% and 80%, respectively. Moreover, the “Weed suppression rate (%) Echinochloa crus-galli” value with Echinochloa crus-galli [10] and with Echinochloa crus-galli [16] was 90% in each case.
In the case of `CC(C)N(C(=O)n1cnn(S(=O)(=O)C2CCCCC2)c1=O)c1c(F)cc(F)cc1F` [Compound 11-298], the figures for the “herbicidal effect, Chenopodium album” value in the assay with Chenopodium album [1] and in the assay on Chenopodium album [5] were 60% and 70%, respectively. Besides, the “herbicidal effect, Amaranthus viridis” value in the assay with Amaranthus viridis [2] and in the assay with Amaranthus viridis [11] was 60% each time. In addition, the “herbicidal effect, Echinochloa crus-galli” value with Echinochloa crus-galli [3] and in the assay on Echinochloa crus-galli [12] was 100% in each case. Also, the “herbicidal effect, Crabgrass” value in the assay with crabgrass [4] and in the assay on crabgrass [6] was 100% each time. Further, the “Weed suppression rate (%) Monochoria vaginalis” value was 100% in the assay with Monochoria vaginalis [7] and 80% with Monochoria vaginalis [13]. For the same compound, the “Weed suppression rate (%) Scirpus juncoides” value in the assay with Scirpus juncoides [8] and in the assay with Scirpus juncoides [14] was 100% in each case. Further, the “Weed suppression rate (%) Lindemia pyxidaria” value with Lindernia pyxidaria [9] was 100%; with Lindernia pyxidaria [15], 80%. The “Weed suppression rate (%) Echinochloa crus-galli” value in the assay with Echinochloa crus-galli [10] and in the assay on Echinochloa crus-galli [16] was 100% throughout.

(Values after patent publication US11076595B2, “1-(n,n-disubstituted carbamoyl) 4-(substituted sulfonyl)triazolin-5-one derivative, 4-(n,n-disubstituted carbamoyl) 1-(substituted sulfonyl)triazolin-5-one derivative, and herbicide containing said derivative as active ingredient” (HOKKO CHEMICAL INDUSTRY CO., LTD., priority 2017, dated 2021).)
